pEC50, pIC50: −log10 of the molar value.

Data set [1] in a line: Cmax in mouse at 15 mg/kg, po. In kind it is ADME, organism-based. Conditions: in vivo. Details: dose 15 mg/kg, route oral.
Data set [2] has as its target T1, Toll-like receptor 7 (Mus musculus, UniProt P58681).
T1 sequence (P58681 whole entry): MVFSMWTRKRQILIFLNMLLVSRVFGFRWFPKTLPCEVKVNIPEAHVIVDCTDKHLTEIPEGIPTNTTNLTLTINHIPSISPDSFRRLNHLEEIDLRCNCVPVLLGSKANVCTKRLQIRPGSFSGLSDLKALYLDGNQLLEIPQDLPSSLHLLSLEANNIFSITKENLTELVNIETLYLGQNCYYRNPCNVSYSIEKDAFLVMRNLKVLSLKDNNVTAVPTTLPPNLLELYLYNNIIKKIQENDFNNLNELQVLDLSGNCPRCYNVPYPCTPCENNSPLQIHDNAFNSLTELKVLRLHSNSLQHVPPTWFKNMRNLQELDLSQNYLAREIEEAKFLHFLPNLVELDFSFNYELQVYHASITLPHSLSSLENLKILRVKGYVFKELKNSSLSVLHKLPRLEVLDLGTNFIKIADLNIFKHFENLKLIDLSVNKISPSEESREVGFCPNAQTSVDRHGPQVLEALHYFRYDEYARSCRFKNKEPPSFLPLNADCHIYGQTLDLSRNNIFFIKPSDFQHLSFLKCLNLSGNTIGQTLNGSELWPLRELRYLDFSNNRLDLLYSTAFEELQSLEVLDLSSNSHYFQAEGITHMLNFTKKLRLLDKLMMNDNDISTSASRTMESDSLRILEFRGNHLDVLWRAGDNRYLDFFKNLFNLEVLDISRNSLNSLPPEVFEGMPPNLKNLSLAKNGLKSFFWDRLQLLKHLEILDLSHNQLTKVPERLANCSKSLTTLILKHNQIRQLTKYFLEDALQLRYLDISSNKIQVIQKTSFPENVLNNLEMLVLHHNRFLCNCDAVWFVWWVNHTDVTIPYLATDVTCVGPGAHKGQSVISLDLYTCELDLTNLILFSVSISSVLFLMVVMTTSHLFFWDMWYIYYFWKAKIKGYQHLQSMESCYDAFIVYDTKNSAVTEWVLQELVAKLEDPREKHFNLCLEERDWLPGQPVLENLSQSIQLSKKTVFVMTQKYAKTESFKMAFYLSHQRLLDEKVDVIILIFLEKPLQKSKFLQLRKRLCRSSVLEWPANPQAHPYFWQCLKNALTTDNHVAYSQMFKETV
The data set is described as follows: In vivo antagonist activity at TLR7 in po dosed C57BL/6 mouse assessed as reduction of gardiquimod-induced IL-6 production pretreated for 30 mins followed by gardiquimod-stimulation and measured after 120 mins by ELISA.

Data set [3] addresses T1, Toll-like receptor 7. The data set is described as follows: Antagonist activity at TLR7 in mouse whole blood cells assessed as inhibition of gardiquimod induced IL-6 production by ELISA. In kind it is cell-based.
The target of the next data set is T2, Toll-like receptor 3 (Homo sapiens, UniProt O15455).
T2 sequence (O15455 whole entry): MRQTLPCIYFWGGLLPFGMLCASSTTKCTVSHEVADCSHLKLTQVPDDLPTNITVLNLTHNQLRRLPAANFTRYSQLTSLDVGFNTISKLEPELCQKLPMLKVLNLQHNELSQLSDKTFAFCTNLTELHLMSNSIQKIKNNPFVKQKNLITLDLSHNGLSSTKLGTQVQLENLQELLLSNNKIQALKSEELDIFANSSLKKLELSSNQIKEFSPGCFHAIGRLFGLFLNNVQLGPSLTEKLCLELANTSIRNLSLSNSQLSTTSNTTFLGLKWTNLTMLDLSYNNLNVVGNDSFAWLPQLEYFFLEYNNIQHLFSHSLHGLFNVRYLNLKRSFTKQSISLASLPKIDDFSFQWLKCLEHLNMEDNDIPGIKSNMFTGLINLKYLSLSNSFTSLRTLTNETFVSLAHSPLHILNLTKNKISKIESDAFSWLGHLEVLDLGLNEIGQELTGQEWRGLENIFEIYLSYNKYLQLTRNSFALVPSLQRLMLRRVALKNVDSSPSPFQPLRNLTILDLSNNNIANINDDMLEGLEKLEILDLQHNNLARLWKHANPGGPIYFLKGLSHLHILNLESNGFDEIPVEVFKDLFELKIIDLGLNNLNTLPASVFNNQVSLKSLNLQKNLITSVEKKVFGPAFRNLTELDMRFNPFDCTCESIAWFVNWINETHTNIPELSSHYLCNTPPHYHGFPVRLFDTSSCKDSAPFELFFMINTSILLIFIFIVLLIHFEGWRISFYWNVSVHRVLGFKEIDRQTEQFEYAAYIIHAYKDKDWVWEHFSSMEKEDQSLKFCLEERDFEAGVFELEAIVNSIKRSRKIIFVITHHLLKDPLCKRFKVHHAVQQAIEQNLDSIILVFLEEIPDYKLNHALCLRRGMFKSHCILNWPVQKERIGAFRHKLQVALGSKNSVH
Briefly: Antagonist activity at human TLR3 overexpressed in HEK-Blue cells assessed as inhibition of Poly IC-induced NFkappaB and AP-1 activation preincubated for 30 mins followed by Poly IC stimulation measured after 22 hrs by quanti-blue SEAP assay. It counts as cell-based.

`CNCCN1CCC(c2ccc3[nH]c(-c4ccc(OC)c(OC)c4)c(C(C)C)c3c2)CC1` came in with a Cmax in data set [1] of 1.63 µM. For the same molecule, the pEC50 at Toll-like receptor 7 [2] is 8.62. Besides, the pIC50 is 7.37 on Toll-like receptor 7 [3] and 5.26 on Toll-like receptor 3.

Values taken from ChEMBL document CHEMBL4619828, “Discovery of Potent and Orally Bioavailable Small Molecule Antagonists of Toll-like Receptors 7/8/9 (TLR7/8/9)” (ACS Med Chem Lett, 2020).
